± gives the expanded uncertainty stated by the source.
Columns and labels:
[1] = wn = mass fraction of the nth substance listed; details: Wilhelmy Plate
[2] = Wilhelmy Plate

CC(O)CN(C)C (stereo not given) [1-(dimethylamino)-2-propanol] + O
surface tension liquid-gas ([1]; 303.2 K, w1 = 0.3): 36.2 ± 0.4 mN/m
surface tension liquid-gas ([1]; 303.2 K, w1 = 0.4): 33.5 ± 0.4 mN/m
surface tension liquid-gas ([1]; 303.2 K, w1 = 0.5): 31.5 ± 0.4 mN/m
surface tension liquid-gas ([1]; 303.2 K, w1 = 1): 24 ± 0.4 mN/m
surface tension liquid-gas ([1]; 308.2 K, w1 = 0.3): 35.4 ± 0.4 mN/m
surface tension liquid-gas ([1]; 308.2 K, w1 = 0.4): 32.7 ± 0.4 mN/m
surface tension liquid-gas ([1]; 308.2 K, w1 = 0.5): 31 ± 0.4 mN/m
surface tension liquid-gas ([1]; 308.2 K, w1 = 1): 23.2 ± 0.4 mN/m
surface tension liquid-gas ([1]; 313.2 K, w1 = 0.3): 34.6 ± 0.4 mN/m
surface tension liquid-gas ([1]; 313.2 K, w1 = 0.4): 32.1 ± 0.4 mN/m
surface tension liquid-gas ([1]; 313.2 K, w1 = 0.5): 30.2 ± 0.4 mN/m
surface tension liquid-gas ([1]; 313.2 K, w1 = 1): 22.6 ± 0.4 mN/m
surface tension liquid-gas ([1]; 318.2 K, w1 = 0.3): 33.9 ± 0.4 mN/m
surface tension liquid-gas ([1]; 318.2 K, w1 = 0.4): 31.5 ± 0.4 mN/m
surface tension liquid-gas ([1]; 318.2 K, w1 = 0.5): 29.6 ± 0.4 mN/m
surface tension liquid-gas ([1]; 318.2 K, w1 = 1): 22 ± 0.4 mN/m
surface tension liquid-gas ([1]; 323.2 K, w1 = 0.3): 33.2 ± 0.4 mN/m
surface tension liquid-gas ([1]; 323.2 K, w1 = 0.4): 30.9 ± 0.4 mN/m
surface tension liquid-gas ([1]; 323.2 K, w1 = 0.5): 29.1 ± 0.4 mN/m
surface tension liquid-gas ([1]; 323.2 K, w1 = 1): 21.3 ± 0.4 mN/m

C[N+](C)(C)C.NCC(=O)[O-] [tetramethylammonium glycinate] + O
surface tension liquid-gas ([1]; 303.2 K, w1 = 0.025): 67.8 ± 1 mN/m
surface tension liquid-gas ([1]; 303.2 K, w1 = 0.05): 65.4 ± 0.4 mN/m
surface tension liquid-gas ([1]; 303.2 K, w1 = 0.075): 64.1 ± 0.8 mN/m
surface tension liquid-gas ([1]; 303.2 K, w1 = 0.1): 62.7 ± 0.5 mN/m
surface tension liquid-gas ([1]; 303.2 K, w1 = 0.15): 61.6 ± 0.5 mN/m
surface tension liquid-gas ([1]; 303.2 K, w1 = 0.2): 60.2 ± 0.3 mN/m
surface tension liquid-gas ([1]; 303.2 K, w1 = 0.4): 58.5 ± 0.3 mN/m
surface tension liquid-gas ([1]; 303.2 K, w1 = 0.6): 57.6 ± 0.4 mN/m
surface tension liquid-gas ([1]; 303.2 K, w1 = 0.8): 56.9 ± 0.4 mN/m
surface tension liquid-gas ([1]; 303.2 K, w1 = 1): 56.2 ± 0.4 mN/m
surface tension liquid-gas ([1]; 308.2 K, w1 = 0.025): 66.6 ± 1 mN/m
surface tension liquid-gas ([1]; 308.2 K, w1 = 0.05): 64.3 ± 0.8 mN/m
surface tension liquid-gas ([1]; 308.2 K, w1 = 0.075): 62.9 ± 0.6 mN/m
surface tension liquid-gas ([1]; 308.2 K, w1 = 0.1): 61.6 ± 0.4 mN/m
surface tension liquid-gas ([1]; 308.2 K, w1 = 0.15): 60.6 ± 0.4 mN/m
surface tension liquid-gas ([1]; 308.2 K, w1 = 0.2): 59.5 ± 0.3 mN/m
surface tension liquid-gas ([1]; 308.2 K, w1 = 0.4): 57.8 ± 0.3 mN/m
surface tension liquid-gas ([1]; 308.2 K, w1 = 0.6): 56.9 ± 0.4 mN/m
surface tension liquid-gas ([1]; 308.2 K, w1 = 0.8): 56.3 ± 0.4 mN/m
surface tension liquid-gas ([1]; 308.2 K, w1 = 1): 55.6 ± 0.4 mN/m
surface tension liquid-gas ([1]; 313.2 K, w1 = 0.025): 65.4 ± 0.9 mN/m
surface tension liquid-gas ([1]; 313.2 K, w1 = 0.05): 63.3 ± 0.7 mN/m
surface tension liquid-gas ([1]; 313.2 K, w1 = 0.075): 62.2 ± 0.6 mN/m
surface tension liquid-gas ([1]; 313.2 K, w1 = 0.1): 60.6 ± 0.4 mN/m
surface tension liquid-gas ([1]; 313.2 K, w1 = 0.15): 59.7 ± 0.4 mN/m
surface tension liquid-gas ([1]; 313.2 K, w1 = 0.2): 58.8 ± 0.3 mN/m
surface tension liquid-gas ([1]; 313.2 K, w1 = 0.4): 57.1 ± 0.3 mN/m
surface tension liquid-gas ([1]; 313.2 K, w1 = 0.6): 56.2 ± 0.4 mN/m
surface tension liquid-gas ([1]; 313.2 K, w1 = 0.8): 55.8 ± 0.4 mN/m
surface tension liquid-gas ([1]; 313.2 K, w1 = 1): 55.1 ± 0.4 mN/m
surface tension liquid-gas ([1]; 318.2 K, w1 = 0.025): 64.3 ± 0.7 mN/m
surface tension liquid-gas ([1]; 318.2 K, w1 = 0.05): 62.5 ± 0.7 mN/m
surface tension liquid-gas ([1]; 318.2 K, w1 = 0.075): 61 ± 0.6 mN/m
surface tension liquid-gas ([1]; 318.2 K, w1 = 0.1): 59.8 ± 0.4 mN/m
surface tension liquid-gas ([1]; 318.2 K, w1 = 0.15): 58.9 ± 0.4 mN/m
surface tension liquid-gas ([1]; 318.2 K, w1 = 0.2): 58.1 ± 0.3 mN/m
surface tension liquid-gas ([1]; 318.2 K, w1 = 0.4): 56.5 ± 0.3 mN/m
surface tension liquid-gas ([1]; 318.2 K, w1 = 0.6): 55.8 ± 0.4 mN/m
surface tension liquid-gas ([1]; 318.2 K, w1 = 0.8): 55.2 ± 0.4 mN/m
surface tension liquid-gas ([1]; 318.2 K, w1 = 1): 54.5 ± 0.4 mN/m
surface tension liquid-gas ([1]; 323.2 K, w1 = 0.025): 62.3 ± 0.6 mN/m
surface tension liquid-gas ([1]; 323.2 K, w1 = 0.05): 61.1 ± 0.6 mN/m
surface tension liquid-gas ([1]; 323.2 K, w1 = 0.075): 60 ± 0.4 mN/m
surface tension liquid-gas ([1]; 323.2 K, w1 = 0.1): 58.7 ± 0.4 mN/m
surface tension liquid-gas ([1]; 323.2 K, w1 = 0.15): 57.9 ± 0.4 mN/m
surface tension liquid-gas ([1]; 323.2 K, w1 = 0.2): 57.1 ± 0.3 mN/m
surface tension liquid-gas ([1]; 323.2 K, w1 = 0.4): 56 ± 0.3 mN/m
surface tension liquid-gas ([1]; 323.2 K, w1 = 0.6): 55.4 ± 0.4 mN/m
surface tension liquid-gas ([1]; 323.2 K, w1 = 0.8): 54.6 ± 0.4 mN/m
surface tension liquid-gas ([1]; 323.2 K, w1 = 1): 53.9 ± 0.4 mN/m

CCCCn1cc[n+](C)c1.NCCCC[C@H](N)C(=O)[O-] [1-butyl-3-methylimidazolium L-lysinate]
surface tension liquid-gas ([2]; 303.2 K): 45.9 ± 0.6 mN/m
surface tension liquid-gas ([2]; 308.2 K): 45.5 ± 0.5 mN/m
surface tension liquid-gas ([2]; 313.2 K): 45.1 ± 0.5 mN/m
surface tension liquid-gas ([2]; 318.2 K): 44.7 ± 0.5 mN/m
surface tension liquid-gas ([2]; 323.2 K): 44.2 ± 0.5 mN/m

C[N+](C)(C)C.NCC(=O)[O-] [tetramethylammonium glycinate]
surface tension liquid-gas ([2]; 303.2 K): 56.2 ± 0.4 mN/m
surface tension liquid-gas ([2]; 308.2 K): 55.6 ± 0.4 mN/m
surface tension liquid-gas ([2]; 313.2 K): 55.1 ± 0.4 mN/m
surface tension liquid-gas ([2]; 318.2 K): 54.5 ± 0.4 mN/m
surface tension liquid-gas ([2]; 323.2 K): 53.9 ± 0.4 mN/m

Reference: the NIST ThermoML archive (doi:10.1021/acs.jced.9b00511)
